Results on 20 compounds are retold here after patent US20250011303A1, “SMALL MOLECULE MODULATORS OF IL-17A, METHODS OF MAKING AND METHODS OF USING THEREOF” (ASCLETIS BIOSCIENCE CO., LTD, priority 2023, published 2025).

A short description of data set [1]: Pharmacokinetics after oral gavage in fasted SD rats. The note with it: PO 10 mg per kilogram, plasma; for AUC: 0.25-24 hours; for bioavailability: rat, 10 mg per kilogram body weight. The class given is in vivo. As for the experimental part: Compounds of the present application were formulated in 40% PEG400/10% solutol/2% Tween 80/48% saline (v/v/v/v), and administered via oral gavage (PO) at the dosages of 10 mg per kilogram body weight in fasted SD rats. Plasma samples were collected at 0.25, 0.5, 1, 2, 4, 8, and 24 hours post dosing. Compound concentration was determined by LC-MS and pharmacokinetics parameters were calculated by WinNonlin 8.2 using Non-Compartmental Analysis model.

Data set [2] concerns HEK-Blue IL-17 cells with rhIL-17A/A. Briefly: HEK-Blue IL-17 cell assay (SEAP reporter, rhIL-17A/A stimulation). The format is cell-based, human. As to conditions: 20 hours incubation, absorbance at 405 nm, read-out: IC50 in HEK-Bule cell Assay. As for the experimental part: • 1. The test Compounds were 3-fold serial diluted from 10 mM for 10 doses in DMSO. • 2. Prepare Reference Compounds (IL-17A-Inhibitor-1) were 3-fold serial diluted from 1 mM for 10 doses in DMSO. • 3. Prepare 1000× Positive control (1 mM IL-17A-Inhibitor-1) and 1000× vehicle control (100% DMSO).
• a) Cells were cultured as the HEK-Blue™ IL-17 technical data sheet recommended. HEK-Blue IL-17 cells were assayed in the exponential growth phase. • b) Aspirate growth medium and rinse cells twice with PBS to remove phenol red. • c) Resuspend cells in test medium to a proper concentration. • d) Only cells with viability greater than 90% were used for assays. • e) Transfer 25 nl of compound dilutions into 384-well assay plates using Echo655; • f) Seed 25 ul of HEK-Blue IL-17 cells at 8,000 cells/well into 384-well plate with rhIL-17A/A. • g) Cells were incubated for 20 hours at 37° C. under 5% CO2 atmosphere. • h) Transfer 2 ul of cells supernatant into per well of 384-well assay plates. • i) Add 20 ul of PNPP substrate. • j) Measure the Absorbance at 405 nm on Envision 2105 plate reader.
RLU signal (LUMcmpd) is calculated for each well.
% Inhibition is calculated as follow: […]
Signalave_pc: The average signal for the positive controls across the plate.
Signalave_vc: The average signal for negative controls across the plate.
Calculate IC50 and Plot effect-dose curve of cmpds:
Calculate IC50 by fitting % Inhibition values and log of compound concentrations to nonlinear regression (dose response−variable slope) with Graphpad 8.0.

Like-named read-outs stand apart in the source and are kept apart here.

`CC(C)[C@H]1C[C@@H](C(=O)N2CC(F)(F)C2)c2ccc(NC(=O)[C@@H](NC(=O)c3ccnn3C(C)C)C(C3CC3)C3CC3)cc2O1` [Compound 161]: in data set [1], the AUC was 9703 ng · h/m and the bioavailability worked out at 63.5%. Moreover, in data set [2] (Homo sapiens, HEK-Blue, 20 h), the IC50 was 43.3 nM. Regarding `CC(C)[C@H]1C[C@@H](C(=O)N2CC(F)(F)C2)c2ccc(NC(=O)[C@@H](NC(=O)c3ccnn3C(C)C)C3CCCCCC3)cc2O1` [Compound 204], in data set [1], the AUC was 18980 ng · h/m and the bioavailability was 34.8%. The IC50 in data set [2] (Homo sapiens, HEK-Blue, 20 h) was found to be 46.6 nM.

In data set [1], `CC(C)n1nccc1C(=O)N[C@H](C(=O)Nc1ccc2c(c1)OC1(CCC(F)(F)CC1)CC2C(=O)N1CC(F)(F)C1)C1CCCCCC1` (stereo partly shown) [Compound 225] yielded an AUC of 7840 ng · h/m and a bioavailability of 57.6%. Further, the IC50 in data set [2] (Homo sapiens, HEK-Blue, 20 h) stood at 44.9 nM. For `CC(C)n1nccc1C(=O)N[C@H](C(=O)Nc1ccc2c(c1)O[C@@H](C1CC(F)(F)C1)C[C@H]2C(=O)N1CC(F)(F)C1)C1CCCCCC1` [Compound 228], the IC50 in data set [2] came to 27.5 nM. As to `CC(C)C1CC(C(=O)N2CC(F)(F)C2)c2cc(F)c(NC(=O)[C@@H](NC(=O)c3ccnn3C(C)C)C3CCCCCC3)cc2O1` (stereo partly shown) [Compound 230], the IC50 in data set [2] (Homo sapiens, HEK-Blue, 20 h) turned out to be 242 nM. On the same count and under the same terms, the result for `CC(C)n1nccc1C(=O)N[C@H](C(=O)Nc1ccc2c(c1)OC(C1CC(F)(F)C1)CC2C(=O)N1CC(C(F)(F)F)C1)C1CCCCCC1` (stereo partly shown) [Compound 231] reads 116 nM; that for `CC(C)n1nccc1C(=O)N[C@H](C(=O)Nc1ccc2c(c1)OC(C1CC(F)(F)C1)CC2C(=O)N1CC(C(F)F)C1)C1CCCCCC1` (stereo partly shown) [Compound 232], 77.1 nM.

For the compound `CC1CN(C(=O)N2CC(F)(F)C2)c2ccc(NC(=O)[C@@H](NC(=O)c3ccnn3C(C)C)C3CCCCCC3)cc2O1` (stereo partly shown) [Compound 235], the half-inhibitory concentration (IC50) in data set [2] (Homo sapiens, HEK-Blue, 20 h) worked out at 71.9 nM. Same read-out and setting: under `CC(C)n1nccc1C(=O)N[C@H](C(=O)Nc1cc2c(cc1F)C(C(=O)N1CC(F)(F)C1)CC1(CCOCC1)O2)C1CCCCCC1` (stereo partly shown) [Compound 236] stands 14.9 nM.

As for `CC(C)n1nccc1C(=O)N[C@H](C(=O)Nc1cc2c(cc1F)C(C(=O)N1CC(F)(F)C1)CC1(CCOCC1)O2)C(C1CC1)C1CC1` (stereo partly shown) [Compound 237], the IC50 in data set [2] (Homo sapiens, HEK-Blue, 20 h) worked out at 26.1 nM.

For `CC(C)n1nccc1C(=O)N[C@H](C(=O)Nc1ccc2c(c1)OC1(CCOCC1)CC2C(=O)N1CC(F)(F)C1)[C@H]1CC[C@H](C)CC1` (stereo partly shown) [Compound 239], in data set [2] (Homo sapiens, HEK-Blue, 20 h), the IC50 is 31.1 nM. Same read-out and setting: under `CC(C)n1nccc1C(=O)N[C@H](C(=O)Nc1ccc2c(c1)O[C@@H](C1CC(F)(F)C1)C[C@H]2C(=O)N1CC(F)(F)C1)C1CCC(F)(F)CC1` [Compound 240] stands 48.3 nM; under `CC(C)n1nccc1C(=O)N[C@H](C(=O)Nc1ccc2c(c1)O[C@@H](C1CC(F)(F)C1)C[C@H]2C(=O)N1CC(F)(F)C1)[C@H]1CC[C@H](C)CC1` [Compound 241], 15.9 nM; under `CC(C)n1nccc1C(=O)N[C@H](C(=O)Nc1ccc2c(c1)OC1(CCC(F)(F)CC1)CC2C(=O)N1CC(F)(F)C1)C(C1CC1)C1CC1` (stereo partly shown) [Compound 243], 122 nM. For the compound `CC(C)n1nccc1C(=O)N[C@H](C(=O)Nc1cc2c(cc1F)C(C(=O)N1CC(F)(F)C1)CC1(CCOCC1)O2)[C@H]1CC[C@H](C)CC1` (stereo partly shown) [Compound 244], the IC50 in data set [2] (Homo sapiens, HEK-Blue, 20 h) is 13.5 nM.

As to `CC(C)n1nccc1C(=O)N[C@H](C(=O)Nc1cc2c(cc1F)[C@H](C(=O)N1CC(F)(F)C1)C[C@H](C1CC(F)(F)C1)O2)C(C1CC1)C1CC1` [Compound 245], in data set [2] (Homo sapiens, HEK-Blue, 20 h), the IC50 was found to be 22 nM. For `CC(C)n1nccc1C(=O)N[C@H](C(=O)Nc1ccc2c(c1)OC1(CCOCC1)CN2C(=O)N1CC(F)(F)C1)C(C1CC1)C1CC1` [Compound 246], the IC50 in data set [2] (Homo sapiens, HEK-Blue, 20 h) is 18.2 nM. For `CC(C)C1CN(C(=O)N2CC(F)(F)C2)c2ccc(NC(=O)[C@@H](NC(=O)c3ccnn3C(C)C)C(C3CC3)C3CC3)cc2O1` (stereo partly shown) [Compound 247], in data set [2] (Homo sapiens, HEK-Blue, 20 h), the IC50 stood at 30.4 nM. In data set [1], `CC(C)n1nccc1C(=O)N[C@H](C(=O)Nc1cc2c(cc1F)[C@H](C(=O)N1CC(F)(F)C1)C[C@H](C1CC(F)(F)C1)O2)[C@H]1CC[C@H](C)CC1` [Compound 248] had an AUC of 6093 ng · h/m and a bioavailability of 70.7%. For the same compound, the IC50 in data set [2] (Homo sapiens, HEK-Blue, 20 h) stood at 24.4 nM.

In the case of `CC(C)n1nccc1C(=O)N[C@H](C(=O)Nc1cc2c(cc1F)[C@H](C(=O)N1CC(F)(F)C1)C[C@H](C1CC(F)(F)C1)O2)C1CCC(F)(F)CC1` [Compound 249], the IC50 in data set [2] (Homo sapiens, HEK-Blue, 20 h) is 99.3 nM.
